This passage reports IC50 results from BindingDB's records for doi:10.7270/Q2DV1HJQ (The Scripps Research Institute Molecular Screening Center, 2014).

Sequence of Disintegrin and metalloproteinase domain-containing protein 17 (P78536 whole entry, the tested form may be a part): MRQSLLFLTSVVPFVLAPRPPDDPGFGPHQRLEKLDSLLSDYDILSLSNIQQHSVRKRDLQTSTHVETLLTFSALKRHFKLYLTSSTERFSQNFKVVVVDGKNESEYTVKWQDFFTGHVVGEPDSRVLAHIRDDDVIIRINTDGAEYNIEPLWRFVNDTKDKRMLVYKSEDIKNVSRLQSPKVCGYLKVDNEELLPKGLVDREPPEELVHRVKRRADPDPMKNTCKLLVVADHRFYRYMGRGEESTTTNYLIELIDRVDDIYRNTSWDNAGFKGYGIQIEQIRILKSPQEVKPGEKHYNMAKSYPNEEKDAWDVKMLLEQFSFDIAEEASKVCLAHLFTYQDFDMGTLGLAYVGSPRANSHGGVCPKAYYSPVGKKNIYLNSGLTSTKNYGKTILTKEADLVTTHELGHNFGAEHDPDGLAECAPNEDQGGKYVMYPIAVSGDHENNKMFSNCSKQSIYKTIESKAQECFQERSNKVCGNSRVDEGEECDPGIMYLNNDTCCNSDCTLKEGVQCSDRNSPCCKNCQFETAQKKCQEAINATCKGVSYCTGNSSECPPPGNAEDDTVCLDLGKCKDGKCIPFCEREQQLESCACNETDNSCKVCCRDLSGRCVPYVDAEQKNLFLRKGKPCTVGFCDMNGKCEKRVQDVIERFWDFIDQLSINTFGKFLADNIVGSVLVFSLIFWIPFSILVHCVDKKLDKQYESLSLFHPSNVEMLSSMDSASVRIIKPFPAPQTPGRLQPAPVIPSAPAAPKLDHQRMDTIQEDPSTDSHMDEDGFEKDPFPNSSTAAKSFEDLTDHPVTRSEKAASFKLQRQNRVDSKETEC

The experiment concerns the target Disintegrin and metalloproteinase domain-containing protein 17 (Homo sapiens, UniProt P78536). Kind of experiment: inhibition of ADAM17 substrate cleavage – biochemical, quenched FRET substrate, counter-screen for ADAM10 exosite inhibitor project, dose response (AID 743253). For orientation: A counterscreen serves to expose hits that act by an unwanted route or on another target.
The IC50 is the midpoint of a concentration-inhibition curve. Read a low IC50 as inhibition by little substance. On to `N#CCSc1nc2cc(C(=O)N3CCC(C(N)=O)CC3)ccc2c2nc3ccccc3n12` [1-({6-[(cyanomethyl)thio]benzimidazo[1,2-c]quinazolin-3-yl}carbonyl)piperidine-4-carboxamide], for which the IC50 was 69.6 µM. This lies in the double-digit micromolar range.

Regarding `COc1ccc(N2C(=O)NC(=O)C(=Cc3c[nH]c4ccc(Br)cc34)C2=O)c(OC)c1` [(5E)-5-[(5-bromo-1H-indol-3-yl)methylene]-1-(2,4-dimethoxyphenyl)pyrimidine-2,4,6(1H,3H,5H)-trione], half-maximal inhibition (IC50) required 12 µM. As for `O=C1C=CC([N+](=O)[O-])=CC1CN=Nc1ccccn1` (stereo not drawn) [MLS000585015], the IC50 was determined as 9.75 µM. This IC50 and that of the compound before are within 1.5-fold of each other.
